Assay results as given in patent publication US9040713B2, “Methods of managing blood sugar levels and compositions related thereto” (EMORY UNIVERSITY, priority 2010, dated 2015).

Experiments:
EGFR = EGFR phosphorylation in cells (immunoblotting); type: cell-based; details: HEK293 cells, 10 μM, 15 min
Experimental: (§1) (A) DDN and CSN activate IR and its downstream signaling in CHO-IR cells. […] The cell lysates were analyzed by immunoblotting with anti-phospho-IR antibodies, or immunoprecipitated by PY20 and analyzed using anti-IR and anti-IRS-1, respectively. (B) DDN and CSN induce IR phosphorylation in a dose-dependent manner. CHO-IR cells were treated with the small compounds at different concentrations for 15 min, and the IR phosphorylation was monitored by immunoprecipitation and immunoblotting. (C) DDN, CSN induce IR phosphorylation in a time-dependent manner. […] (D) DDN and CSN induce IR phosphorylation and its downstream signaling in a dose-dependent manner. […] (E) DDN and CSN cannot induce IGF-1R or EGFR phosphorylation. CHO-IGF-1R or HEK293 cells were treated with EGF (100 nM), IGF-1 (100 nM), DDN (10 μM) or CSN (10 μM) for 15 min. The cell lysates were analyzed by immunoblotting with anti-pIGF-1R and anti-pEGFR.
(§2) (A) Chemical structure of 4524-E7. (B) Effect of 4524-E7 and other 1,4-naphthoquinone derivatives on IR phosphorylation in CHO-IR cells. CHO-IR cells were cultured in 96-well plates and treated with 5 μM compounds for 15 min at 37 C. Cells were lysed, and IR phosphorylations were tested by ELISA. The IR phosphorylation activities of the tested compounds were expressed as a percentage of the vehicle. (C) 4524-E7 and 1,4-naphthoquinone derivates activate IR and its downstream signaling in CHO-IR cells. […] The cell lysates were analyzed by immunoblotting with various indicated antibodies. The phosphorylated IR was immunoprecipitated using PY20 and analyzed by immunoblotting with anti-IR13 antibody. […] The phosphorylation of each receptor was determined by Western blot using specific antibodies as indicated. (E) 4524-E7 activates IR through its ICD. Upper panel: Diagram of chimaeric receptors. Lower panel: His-tagged wild-type IR, IGFR-IR, IR-IGFR, and IR-EGFR constructs were transfected into CHO cells followed vehicle or 5 μM 4524-E7 treatment for 30 min. Then the cells were lysated and the transfected receptor fused to His tag were pulled down with Ni+ beads, followed by western blot against anti-p-Tyr and anti-His. The cell lysates were tested with anti-p-Akt and anti-Akt.
(§3) A cell-based ELISA assay was developed with an IR stably transfected Chinese Hamster Ovary (CHO-IR) cell line. The cells were seeded in a 96-well plate and treated with 10 μM (15 min) compounds. The cell lysates were subjected to the sandwich ELISA using immobilized anti-phosphotyrosine antibody and anti-IR antibody. […] Among the positive hits, 1,4-naphthoquinone compounds were identified that can selectively activate IR but not IGF-1R (FIG. 1A). […] Total IR tyrosine phosphorylation was further confirmed by immunoprecipitation using anti-phosphotyrosine (PY20) antibody (FIG. 2A, 3rd panel). […]

IGF-1R = IGF-1R phosphorylation in cells (immunoblotting); type: cell-based; details: CHO-IGF-1R cells, 10 μM, 15 min
Experimental: as §1, §2, §3

C57BL/6J mice = assay: Lethality after administration to C57BL/6J mice; type: in vivo, mouse; details: intraperitoneal, even at low doses (1 mg/kg)
Experimental: However, CSN was lethal to the mice even at low doses (1 mg/kg) (data not shown). […] The kinetics of DDN in lowering blood glucose is different from that of insulin.

IR = IR (Homo sapiens, UniProt P06213); assay: Immunoblotting of IR phosphorylation and downstream signaling in CHO-IR cells; type: cell-based; set-up: expressed in transfected cells; host or cells: CHO (CHO-IR, gift from Dr. Nicholas Webster, UCSD)
Experimental: The cell lysates were analyzed by immunoblotting with anti-phospho-IR antibodies, or immunoprecipitated by PY20 and analyzed using anti-IR and anti-IRS-1, respectively. […] The cell lysates were analyzed by immunoblotting with anti-pIGF-1R and anti-pEGFR. […]
A cell-based ELISA assay was developed with an IR stably transfected Chinese Hamster Ovary (CHO-IR) cell line. […] The cell lysates were subjected to the sandwich ELISA using immobilized anti-phosphotyrosine antibody and anti-IR antibody.

IR, sequence (P06213 763-1382 limits assumed): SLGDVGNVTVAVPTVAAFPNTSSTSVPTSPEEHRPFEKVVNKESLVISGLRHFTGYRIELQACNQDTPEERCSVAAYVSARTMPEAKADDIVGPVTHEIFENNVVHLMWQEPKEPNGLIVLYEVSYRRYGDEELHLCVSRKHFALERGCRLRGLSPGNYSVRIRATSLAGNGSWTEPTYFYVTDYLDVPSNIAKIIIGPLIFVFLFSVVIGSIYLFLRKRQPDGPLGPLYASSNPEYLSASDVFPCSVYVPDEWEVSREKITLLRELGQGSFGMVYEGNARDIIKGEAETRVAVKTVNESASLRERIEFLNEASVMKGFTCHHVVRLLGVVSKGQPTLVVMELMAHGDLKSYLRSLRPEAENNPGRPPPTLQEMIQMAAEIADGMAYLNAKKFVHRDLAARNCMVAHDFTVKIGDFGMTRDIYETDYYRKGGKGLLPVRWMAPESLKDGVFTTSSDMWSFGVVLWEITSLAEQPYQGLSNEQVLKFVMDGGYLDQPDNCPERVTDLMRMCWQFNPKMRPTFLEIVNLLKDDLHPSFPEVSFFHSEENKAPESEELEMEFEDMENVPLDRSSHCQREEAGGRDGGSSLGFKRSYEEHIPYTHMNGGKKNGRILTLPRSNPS
IR, sequence (P06213 28-758 limits assumed): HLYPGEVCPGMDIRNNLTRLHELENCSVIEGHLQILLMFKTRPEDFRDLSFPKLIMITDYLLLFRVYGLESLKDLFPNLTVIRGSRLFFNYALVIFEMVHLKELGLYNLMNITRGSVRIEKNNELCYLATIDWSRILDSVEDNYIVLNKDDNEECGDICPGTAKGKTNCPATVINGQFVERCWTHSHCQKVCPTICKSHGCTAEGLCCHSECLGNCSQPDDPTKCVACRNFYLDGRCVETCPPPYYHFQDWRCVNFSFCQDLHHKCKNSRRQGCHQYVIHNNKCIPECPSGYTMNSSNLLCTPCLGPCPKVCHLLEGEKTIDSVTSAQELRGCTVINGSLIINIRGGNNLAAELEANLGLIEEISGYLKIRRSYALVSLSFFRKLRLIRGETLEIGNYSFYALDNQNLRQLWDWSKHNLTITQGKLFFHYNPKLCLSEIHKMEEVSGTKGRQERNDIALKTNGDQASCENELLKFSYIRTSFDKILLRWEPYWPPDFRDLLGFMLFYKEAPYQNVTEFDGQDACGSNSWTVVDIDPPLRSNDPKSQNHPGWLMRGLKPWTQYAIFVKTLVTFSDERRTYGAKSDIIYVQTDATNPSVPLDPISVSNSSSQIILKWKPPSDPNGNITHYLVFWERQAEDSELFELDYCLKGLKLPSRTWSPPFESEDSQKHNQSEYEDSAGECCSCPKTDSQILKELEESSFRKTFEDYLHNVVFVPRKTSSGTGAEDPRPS

CSC1=C(SC)C(=O)c2ccccc2C1=O [CSN, 2,3-Bis-methylsulfanyl-1,4-naphthoquinone]
EGFR activation (EGFR): Neither IGF-1R nor EGFR was activated | IGF-1R activation (IGF-1R): Neither IGF-1R nor EGFR was activated | lethality (C57BL/6J mice): lethal to the animals | time at which IR activation peaked (IR; 5 μM): 60 min | time at which IR phosphorylation starts (IR; 5 μM): 5 to 15 min | tyrosine phosphorylation of IRS-1 (IR; 5 μM, 15 min): also increased | tyrosine phosphorylation of the IR β subunit in Y1146 and Y1158/1162/1163 (IR; 5 μM, 15 min): strongly stimulated | concentration stimulating the IR signal cascades (IR; DDN or CSN 30 min, insulin 15 min): 5 µM
